Our source for the LC50 and EC50 values is ChEMBL document CHEMBL1150080, “Asimilobin and cis- and trans-murisolinones, novel bioactive Annonaceous acetogenins from the seeds of Asimina triloba” (J Nat Prod, 1995).

≈ marks a conversion by molar mass, not a printed value.

System in one data set: not listed separately
The data set is described as follows: Toxicity to brine shrimp larvae. It is filed as organism-based. The following applies: artemia, in vivo.
Regarding `CCCCCCCCCCC[C@@H](O)[C@H]1CC[C@H]([C@H](O)CCCCCCCCCC[C@@H]2C[C@H](CC(C)=O)C(=O)O2)O1`, the LC50 (commonly the concentration lethal to half of the exposed cells or organisms) worked out at 12.3 µg/mL (≈ 21.7 µM).

For `CCCCCCCCCCC[C@@H](O)[C@H]1CC[C@H]([C@H](O)CCCCCCCCCC[C@H]2C[C@H](CC(C)=O)C(=O)O2)O1`, the LC50 was 18.2 µg/mL (≈ 32.1 µM).

Compound `CCCCCCCCCCCCCC[C@H](O)[C@@H]1CC[C@@H]([C@@H]2CC[C@@H](CCCCC[C@@H](O)CC3=C[C@H](C)OC3=O)O2)O1` [ASIMILOBIN] gave an LC50 of 1.06 µg/mL (≈ 1.83 µM).

Another data set deals with A549. The data set is described as follows: Cytotoxicity against human A549 cells after 7 days by MTT assay. Format: functional. The following applies: A549, 168 h, read-out: ED50 (the source's name). (In general: Tetrazolium assays rely on reduction of a dye to a coloured formazan, in cell work by metabolically active cells.)
In the case of `CCCCCCCCCCC[C@@H](O)[C@H]1CC[C@H]([C@H](O)CCCCCCCCCC[C@@H]2C[C@H](CC(C)=O)C(=O)O2)O1`, the EC50 stood at 0.148 µg/mL (≈ 0.261 µM).

In the case of `CCCCCCCCCCC[C@@H](O)[C@H]1CC[C@H]([C@H](O)CCCCCCCCCC[C@H]2C[C@H](CC(C)=O)C(=O)O2)O1`, the EC50 amounted to 0.0276 µg/mL (≈ 0.0487 µM).

For `CCCCCCCCCCCCCC[C@H](O)[C@@H]1CC[C@@H]([C@@H]2CC[C@@H](CCCCC[C@@H](O)CC3=C[C@H](C)OC3=O)O2)O1` [ASIMILOBIN], the EC50 stood at 0.0301 µg/mL (≈ 0.052 µM).

Regarding `COc1cccc2c1C(=O)c1c(O)c3c(c(O)c1C2=O)C[C@@](O)(C(=O)CO)C[C@@H]3O[C@H]1C[C@H](N)[C@H](O)[C@H](C)O1` [DOXORUBICIN], the EC50 was determined as 0.00101 µg/mL (≈ 0.00186 µM).

A further data set relates to MCF7. The experiment in a line: Cytotoxicity against human MCF7 cells after 7 days by MTT assay. It is filed as functional. To be noted: MCF7, 168 h, read-out: ED50 (the source's name).
For `CCCCCCCCCCC[C@@H](O)[C@H]1CC[C@H]([C@H](O)CCCCCCCCCC[C@@H]2C[C@H](CC(C)=O)C(=O)O2)O1`, the EC50 amounted to 0.0793 µg/mL (≈ 0.14 µM).

As to `CCCCCCCCCCC[C@@H](O)[C@H]1CC[C@H]([C@H](O)CCCCCCCCCC[C@H]2C[C@H](CC(C)=O)C(=O)O2)O1`, the EC50 was determined as 0.0296 µg/mL (≈ 0.0522 µM).

Take `CCCCCCCCCCCCCC[C@H](O)[C@@H]1CC[C@@H]([C@@H]2CC[C@@H](CCCCC[C@@H](O)CC3=C[C@H](C)OC3=O)O2)O1` [ASIMILOBIN]: the EC50 came out at 2.14 µg/mL (≈ 3.7 µM).

`COc1cccc2c1C(=O)c1c(O)c3c(c(O)c1C2=O)C[C@@](O)(C(=O)CO)C[C@@H]3O[C@H]1C[C@H](N)[C@H](O)[C@H](C)O1` [DOXORUBICIN]: the EC50 stood at 0.0103 µg/mL (≈ 0.019 µM).

The subject of a further data set is HT-29. The data set is described as follows: Cytotoxicity against human HT-29 cells after 7 days by MTT assay. It is filed as functional. The following applies: HT-29, 168 h, read-out: ED50 (the source's name).
For the compound `CCCCCCCCCCC[C@@H](O)[C@H]1CC[C@H]([C@H](O)CCCCCCCCCC[C@@H]2C[C@H](CC(C)=O)C(=O)O2)O1`, the EC50 was 0.754 µg/mL (≈ 1.33 µM).

`CCCCCCCCCCC[C@@H](O)[C@H]1CC[C@H]([C@H](O)CCCCCCCCCC[C@H]2C[C@H](CC(C)=O)C(=O)O2)O1`: the EC50 was found to be 1.16 µg/mL (≈ 2.05 µM).

In the case of `CCCCCCCCCCCCCC[C@H](O)[C@@H]1CC[C@@H]([C@@H]2CC[C@@H](CCCCC[C@@H](O)CC3=C[C@H](C)OC3=O)O2)O1` [ASIMILOBIN], the EC50 turned out to be 0.063 µg/mL (≈ 0.109 µM).

For the compound `COc1cccc2c1C(=O)c1c(O)c3c(c(O)c1C2=O)C[C@@](O)(C(=O)CO)C[C@@H]3O[C@H]1C[C@H](N)[C@H](O)[C@H](C)O1` [DOXORUBICIN], the EC50 is 0.0262 µg/mL (≈ 0.0482 µM).

The subject of another data set is A498. The experiment in a line: Cytotoxicity against human A498 cells after 7 days by MTT assay. It is filed as functional. The following applies: A498, 168 h, read-out: ED50 (the source's name).
In the case of `CCCCCCCCCCC[C@@H](O)[C@H]1CC[C@H]([C@H](O)CCCCCCCCCC[C@@H]2C[C@H](CC(C)=O)C(=O)O2)O1`, the EC50 came out at 3.44 µg/mL (≈ 6.07 µM).

Consider `CCCCCCCCCCC[C@@H](O)[C@H]1CC[C@H]([C@H](O)CCCCCCCCCC[C@H]2C[C@H](CC(C)=O)C(=O)O2)O1`, for which the EC50 was 1.23 µg/mL (≈ 2.17 µM).

As to `CCCCCCCCCCCCCC[C@H](O)[C@@H]1CC[C@@H]([C@@H]2CC[C@@H](CCCCC[C@@H](O)CC3=C[C@H](C)OC3=O)O2)O1` [ASIMILOBIN], the EC50 is 0.0226 µg/mL (≈ 0.039 µM).

The subject of another data set is PC-3. The experiment in a line: Cytotoxicity against human PC3 cells after 7 days by MTT assay. It is filed as functional. To be noted: PC-3, 168 h, read-out: ED50 (the source's name).
On to `CCCCCCCCCCC[C@@H](O)[C@H]1CC[C@H]([C@H](O)CCCCCCCCCC[C@@H]2C[C@H](CC(C)=O)C(=O)O2)O1`, for which the EC50 was determined as 1.48 µg/mL (≈ 2.61 µM).

As for `CCCCCCCCCCC[C@@H](O)[C@H]1CC[C@H]([C@H](O)CCCCCCCCCC[C@H]2C[C@H](CC(C)=O)C(=O)O2)O1`, the EC50 stood at 0.214 µg/mL (≈ 0.378 µM).

For the compound `CCCCCCCCCCCCCC[C@H](O)[C@@H]1CC[C@@H]([C@@H]2CC[C@@H](CCCCC[C@@H](O)CC3=C[C@H](C)OC3=O)O2)O1` [ASIMILOBIN], the EC50 is 1.47 µg/mL (≈ 2.54 µM).

`COc1cccc2c1C(=O)c1c(O)c3c(c(O)c1C2=O)C[C@@](O)(C(=O)CO)C[C@@H]3O[C@H]1C[C@H](N)[C@H](O)[C@H](C)O1` [DOXORUBICIN]: the EC50 came out at 0.0196 µg/mL (≈ 0.0361 µM).

Another data set deals with MIA PaCa-2. The data set is described as follows: Cytotoxicity against human MIAPaCa2 cells after 7 days by MTT assay. The following applies: MIA PaCa-2, 168 h, read-out: ED50 (the source's name). It is filed as functional.
Take `CCCCCCCCCCC[C@@H](O)[C@H]1CC[C@H]([C@H](O)CCCCCCCCCC[C@@H]2C[C@H](CC(C)=O)C(=O)O2)O1`: the EC50 was found to be 0.107 µg/mL (≈ 0.189 µM).

Take `CCCCCCCCCCC[C@@H](O)[C@H]1CC[C@H]([C@H](O)CCCCCCCCCC[C@H]2C[C@H](CC(C)=O)C(=O)O2)O1`: the EC50 is 0.0059 µg/mL (≈ 0.0104 µM).

`CCCCCCCCCCCCCC[C@H](O)[C@@H]1CC[C@@H]([C@@H]2CC[C@@H](CCCCC[C@@H](O)CC3=C[C@H](C)OC3=O)O2)O1` [ASIMILOBIN]: the EC50 stood at 0.104 µg/mL (≈ 0.18 µM).

With `COc1cccc2c1C(=O)c1c(O)c3c(c(O)c1C2=O)C[C@@](O)(C(=O)CO)C[C@@H]3O[C@H]1C[C@H](N)[C@H](O)[C@H](C)O1` [DOXORUBICIN], the EC50 came out at 0.00132 µg/mL (≈ 0.00243 µM).
